{"source": "ChEMBL document CHEMBL5579839", "about": "“Discovery of new cyclopropane sulfonamide derivatives as EGFR inhibitors to overcome C797S-mediated resistance and EGFR double mutation” (Eur J Med Chem, 2024)", "key": {"BaF3 [1]": {"test_system": "BaF3", "assay": "Induction of apoptosis in mouse BaF3 cells harboring EGFR L858R/T790M/C797S mutant assessed as increase in green fluorescence at 10 to 25 nM by TUNNEL method", "type": "functional, cell-based", "details": "dose 10-25 nM"}, "BaF3 [2]": {"test_system": "BaF3", "assay": "Induction of cell death in inner region of cell spheres of mouse BaF3 cells harboring EGFR L858R/T790M/C797S mutant at 10 nM by Calcein AM/PI staining based analysis", "type": "functional"}, "[3]": {"assay": "Cytotoxicity against human HaCaT cells", "type": "toxicity, cell-based"}, "NCI-H1975 [4]": {"test_system": "NCI-H1975", "assay": "Inhibition of cell migration in human NCI-H1975 cells at 10 nM incubated for 24 hrs by scratch healing assay relative to control", "type": "functional"}, "BaF3 [5]": {"test_system": "BaF3", "assay": "Induction of apoptosis in mouse BaF3 cells harboring EGFR L858R/T790M/C797S mutant assessed as late apoptotic cells at 10 nM incubated for 24 hrs by Annexin V-FITC/PI staining based flow cytometry (reference value: 0.02 %)", "type": "functional"}, "BaF3 [6]": {"test_system": "BaF3", "assay": "Inhibition of cell invasion in mouse BaF3 cells harboring EGFR L858R/T790M/C797S mutant by transwell assay", "type": "functional, cell-based"}, "NCI-H1975 [7]": {"test_system": "NCI-H1975", "assay": "Induction of apoptosis in human NCI-H1975 cells assessed as late apoptotic cells at 10 nM incubated for 24 hrs by Annexin V-FITC/PI staining based flow cytometry (reference value: 3.55 %)", "type": "functional"}, "BaF3 [8]": {"test_system": "BaF3", "assay": "Induction of apoptosis in mouse BaF3 cells harboring EGFR L858R/T790M/C797S mutant assessed as viable cells at 10 nM incubated for 24 hrs by Annexin V-FITC/PI staining based flow cytometry (reference value: 99.77 %)", "type": "functional", "details": "read-out: Activity"}, "BaF3 [9]": {"test_system": "BaF3", "assay": "Inhibition of fibronectin activation in mouse BaF3 cells allografted in nude mouse at 50 mg/kg, po for 7 days", "type": "functional, organism-based", "details": "time 7.0 day"}, "[10]": {"target": "T1, Epidermal growth factor receptor (Homo sapiens, UniProt P00533)", "T1 sequence (P00533 whole entry)": "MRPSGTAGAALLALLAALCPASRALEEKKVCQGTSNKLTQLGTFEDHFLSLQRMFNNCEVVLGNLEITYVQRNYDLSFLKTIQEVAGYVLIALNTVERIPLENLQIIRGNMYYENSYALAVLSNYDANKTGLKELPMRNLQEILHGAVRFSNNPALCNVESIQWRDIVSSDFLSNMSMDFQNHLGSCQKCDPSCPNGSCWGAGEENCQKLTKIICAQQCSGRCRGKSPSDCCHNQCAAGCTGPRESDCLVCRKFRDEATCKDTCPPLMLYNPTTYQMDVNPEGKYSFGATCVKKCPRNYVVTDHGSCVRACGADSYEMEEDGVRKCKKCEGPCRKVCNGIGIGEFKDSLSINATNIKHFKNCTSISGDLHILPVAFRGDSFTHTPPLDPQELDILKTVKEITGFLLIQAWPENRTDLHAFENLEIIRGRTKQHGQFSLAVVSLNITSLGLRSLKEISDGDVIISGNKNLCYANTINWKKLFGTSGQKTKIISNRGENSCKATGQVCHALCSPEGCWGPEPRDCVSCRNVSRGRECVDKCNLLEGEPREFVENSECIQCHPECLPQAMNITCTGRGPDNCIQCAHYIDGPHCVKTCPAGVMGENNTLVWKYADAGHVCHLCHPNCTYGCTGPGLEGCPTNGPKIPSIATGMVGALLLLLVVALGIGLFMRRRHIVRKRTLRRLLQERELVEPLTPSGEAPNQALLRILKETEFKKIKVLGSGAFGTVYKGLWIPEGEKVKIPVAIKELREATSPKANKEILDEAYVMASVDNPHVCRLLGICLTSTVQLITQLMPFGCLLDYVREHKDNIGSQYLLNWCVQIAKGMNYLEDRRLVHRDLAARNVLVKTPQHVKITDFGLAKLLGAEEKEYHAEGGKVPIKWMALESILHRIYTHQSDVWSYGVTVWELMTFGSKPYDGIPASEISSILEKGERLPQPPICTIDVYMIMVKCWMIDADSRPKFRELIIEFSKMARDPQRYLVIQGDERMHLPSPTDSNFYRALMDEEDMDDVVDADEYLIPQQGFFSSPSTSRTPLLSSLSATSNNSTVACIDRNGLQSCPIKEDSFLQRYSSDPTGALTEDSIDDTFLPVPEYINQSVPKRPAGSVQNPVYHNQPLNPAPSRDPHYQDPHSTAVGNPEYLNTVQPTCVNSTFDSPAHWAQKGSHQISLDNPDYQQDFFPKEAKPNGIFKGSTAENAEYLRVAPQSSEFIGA", "assay": "Inhibition of EGFR phosphorylation in human NCI-H1975 cells assessed as reduction in red fluorescence incubated for 24 hrs by immunofluorescence analysis", "type": "cell-based"}, "NCI-H1975 [11]": {"test_system": "NCI-H1975", "assay": "Antitumor activity against human NCI-H1975 cells xenografted in nude mouse at 50 mg/kg, po measured for 7 days relative to control", "type": "functional", "details": "NCI-H1975, 168 h, time 7 day, read-out: TGI"}, "[12]": {"assay": "Cytotoxicity against human L02 cells", "type": "toxicity, cell-based"}, "NCI-H1975 [13]": {"test_system": "NCI-H1975", "assay": "Inhibition of colony formation in human NCI-H1975 cells at 5 to 10 nM by crystal violet staining based analysis", "type": "functional, cell-based", "details": "dose 5-10 nM"}, "NCI-H1975 [14]": {"test_system": "NCI-H1975", "assay": "Inhibition of cell invasion in human NCI-H1975 cells by transwell assay", "type": "functional, cell-based"}, "[15]": {"target": "T1, Epidermal growth factor receptor", "assay": "Inhibition of wild-type EGFR (unknown origin)"}, "NCI-H1975 [16]": {"test_system": "NCI-H1975", "assay": "Inhibition of neovascularization in human NCI-H1975 cells xenografted in nude mouse at 50 mg/kg, po for 7 days by IHC analysis", "type": "functional, organism-based", "details": "time 7.0 day"}, "[17]": {"assay": "Toxicity in nude mouse allografted with mouse BaF3 cells assessed as body weight loss at 50 mg/kg, po measured for 7 days", "type": "organism-based", "details": "in vivo, 168 h, time 7 day"}, "BaF3 [18]": {"test_system": "BaF3", "assay": "Antitumor activity against mouse BaF3 cells allografted in nude mouse assessed as reduction of tumor weight at 50 mg/kg, po measured for 7 days", "type": "functional, organism-based", "details": "time 7.0 day"}, "[19]": {"assay": "Toxicity in nude mouse allografted with mouse BaF3 cells assessed as lesion in liver at 50 mg/kg, po for 7 days by H and E staining based analysis", "type": "organism-based", "details": "in vivo, 168 h, time 7 day"}, "BaF3 [20]": {"test_system": "BaF3", "assay": "Induction of apoptosis in mouse BaF3 cells harboring EGFR L858R/T790M/C797S mutant assessed as necrotic cells at 10 nM incubated for 24 hrs by Annexin V-FITC/PI staining based flow cytometry (reference value: 0.06 %)", "type": "functional"}, "[21]": {"target": "Vascular endothelial growth factor receptor 2 (Homo sapiens) (UniProt P35968)", "sequence (P35968 whole entry)": "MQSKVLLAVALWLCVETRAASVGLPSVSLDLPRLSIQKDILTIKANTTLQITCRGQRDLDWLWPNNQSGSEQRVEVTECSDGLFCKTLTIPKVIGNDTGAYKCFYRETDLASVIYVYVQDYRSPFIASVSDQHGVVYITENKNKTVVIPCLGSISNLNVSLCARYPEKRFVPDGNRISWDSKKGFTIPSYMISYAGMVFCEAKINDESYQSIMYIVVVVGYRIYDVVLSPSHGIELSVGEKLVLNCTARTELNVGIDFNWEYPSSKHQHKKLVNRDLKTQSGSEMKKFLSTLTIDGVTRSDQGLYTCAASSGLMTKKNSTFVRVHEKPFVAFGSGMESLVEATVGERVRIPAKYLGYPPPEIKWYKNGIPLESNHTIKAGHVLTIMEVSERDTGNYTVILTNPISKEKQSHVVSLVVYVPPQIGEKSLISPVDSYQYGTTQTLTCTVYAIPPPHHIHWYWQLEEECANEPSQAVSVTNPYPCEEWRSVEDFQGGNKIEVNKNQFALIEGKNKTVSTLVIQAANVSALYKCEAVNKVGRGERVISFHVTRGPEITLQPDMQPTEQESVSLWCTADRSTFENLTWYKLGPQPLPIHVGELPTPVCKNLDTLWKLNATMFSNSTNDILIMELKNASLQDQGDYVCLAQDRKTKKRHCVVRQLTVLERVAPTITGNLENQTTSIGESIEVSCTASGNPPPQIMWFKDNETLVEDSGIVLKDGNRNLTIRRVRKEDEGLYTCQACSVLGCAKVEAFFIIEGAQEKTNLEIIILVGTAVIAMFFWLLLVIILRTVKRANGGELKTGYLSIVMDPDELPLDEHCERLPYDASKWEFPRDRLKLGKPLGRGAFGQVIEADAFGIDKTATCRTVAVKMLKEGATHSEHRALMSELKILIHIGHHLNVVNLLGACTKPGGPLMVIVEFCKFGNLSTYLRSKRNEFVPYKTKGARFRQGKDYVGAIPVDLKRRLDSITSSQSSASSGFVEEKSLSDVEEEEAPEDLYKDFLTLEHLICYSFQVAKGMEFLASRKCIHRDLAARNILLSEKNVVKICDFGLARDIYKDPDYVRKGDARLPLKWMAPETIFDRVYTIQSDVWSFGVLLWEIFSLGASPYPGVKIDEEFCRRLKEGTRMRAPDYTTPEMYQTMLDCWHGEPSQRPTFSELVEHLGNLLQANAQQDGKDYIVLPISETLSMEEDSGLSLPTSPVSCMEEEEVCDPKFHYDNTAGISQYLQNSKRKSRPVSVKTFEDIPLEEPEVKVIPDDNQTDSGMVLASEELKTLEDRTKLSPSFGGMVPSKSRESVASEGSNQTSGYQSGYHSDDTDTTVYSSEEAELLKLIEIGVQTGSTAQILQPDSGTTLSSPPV", "assay": "Binding affinity to KDR (unknown origin) at 100 nM by kinase profiling analysis"}, "BaF3 [22]": {"test_system": "BaF3", "assay": "Inhibition of cell migration in mouse BaF3 cells harboring EGFR L858R/T790M/C797S mutant by transwell assay", "type": "functional, cell-based"}, "BaF3 [23]": {"test_system": "BaF3", "assay": "Inhibition of EGFR L858R/T790M/C797S mutant in mouse BaF3 cells assessed as reduction in ERK phosphorylation incubated for 24 hrs by Western blot analysis", "type": "cell-based", "details": "dose <= 100.0 nM"}, "[24]": {"assay": "Toxicity in nude mouse allografted with mouse BaF3 cells assessed as lesion in lung at 50 mg/kg, po for 7 days by H and E staining based analysis", "type": "organism-based", "details": "in vivo, 168 h, time 7 day"}, "[25]": {"target": "Epidermal growth factor receptor (Homo sapiens, UniProt P00533, C797S/EX19DEL/T790M)", "sequence (P00533 whole entry, looked up, stated change not applied)": "as the sequence (P00533 whole entry) above", "assay": "Inhibition of EGFR C797S/T790M/Del19 mutant (unknown origin)"}, "[26]": {"target": "Epidermal growth factor receptor (Homo sapiens, UniProt P00533, C797S/L858R/T790M)", "sequence (P00533 25-1210 T790M/C797S/L858R limits assumed)": "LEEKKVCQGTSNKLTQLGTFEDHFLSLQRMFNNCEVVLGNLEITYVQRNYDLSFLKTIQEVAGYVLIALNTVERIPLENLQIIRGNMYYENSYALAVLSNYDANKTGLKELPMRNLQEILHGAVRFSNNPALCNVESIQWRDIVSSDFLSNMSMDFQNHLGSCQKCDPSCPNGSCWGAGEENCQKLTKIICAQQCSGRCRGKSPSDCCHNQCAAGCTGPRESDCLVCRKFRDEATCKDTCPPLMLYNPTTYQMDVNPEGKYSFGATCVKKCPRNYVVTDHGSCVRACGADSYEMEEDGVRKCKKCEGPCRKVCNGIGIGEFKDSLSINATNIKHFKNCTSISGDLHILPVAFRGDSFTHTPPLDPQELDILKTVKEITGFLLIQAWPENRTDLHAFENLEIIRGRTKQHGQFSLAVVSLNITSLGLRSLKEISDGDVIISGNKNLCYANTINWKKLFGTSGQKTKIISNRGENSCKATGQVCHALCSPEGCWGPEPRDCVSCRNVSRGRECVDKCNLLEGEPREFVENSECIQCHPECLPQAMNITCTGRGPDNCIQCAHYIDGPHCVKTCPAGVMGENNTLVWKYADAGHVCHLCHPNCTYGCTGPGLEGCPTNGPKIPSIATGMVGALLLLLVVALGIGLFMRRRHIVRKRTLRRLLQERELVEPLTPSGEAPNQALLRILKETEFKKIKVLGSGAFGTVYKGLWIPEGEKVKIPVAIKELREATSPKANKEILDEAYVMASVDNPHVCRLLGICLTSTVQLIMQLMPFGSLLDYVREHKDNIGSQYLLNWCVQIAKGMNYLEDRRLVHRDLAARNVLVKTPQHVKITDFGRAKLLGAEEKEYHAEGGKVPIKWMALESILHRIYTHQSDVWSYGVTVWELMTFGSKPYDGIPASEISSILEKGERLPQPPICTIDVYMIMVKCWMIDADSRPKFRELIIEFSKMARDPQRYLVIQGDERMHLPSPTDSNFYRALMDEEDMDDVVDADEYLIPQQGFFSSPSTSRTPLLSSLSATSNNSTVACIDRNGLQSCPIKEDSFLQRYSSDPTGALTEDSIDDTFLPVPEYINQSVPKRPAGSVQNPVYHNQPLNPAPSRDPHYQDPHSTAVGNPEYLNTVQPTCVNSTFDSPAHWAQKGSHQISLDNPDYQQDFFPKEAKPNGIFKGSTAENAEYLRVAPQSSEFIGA", "assay": "Inhibition of EGFR C797S/T790M/L858R mutant (unknown origin)"}, "[27]": {"assay": "Toxicity in nude mouse allografted with mouse BaF3 cells assessed as damage in liver at 50 mg/kg, po for 7 days by H and E staining based analysis", "type": "organism-based", "details": "in vivo, 168 h, time 7 day"}, "[28]": {"assay": "Toxicity in nude mouse allografted with mouse BaF3 cells assessed as animal health at 50 mg/kg, po measured for 7 days", "type": "organism-based", "details": "in vivo, 168 h, time 7 day"}, "BaF3 [29]": {"test_system": "BaF3", "assay": "Antiproliferative activity against mouse BaF3 cells harboring EGFR C797S/Del19/T790M mutant", "type": "functional, cell-based"}, "[30]": {"assay": "Toxicity in nude mouse allografted with mouse BaF3 cells assessed as animal abnormality at 50 mg/kg, po measured for 7 days", "type": "organism-based", "details": "in vivo, 168 h, time 7 day"}, "NCI-H1975 [31]": {"test_system": "NCI-H1975", "assay": "Antiproliferative activity against human NCI-H1975 cells assessed as inhibition of sphere formation incubated for 72 hrs by CCK8 assay", "type": "functional, cell-based", "details": "NCI-H1975, 72 h"}, "BaF3 [32]": {"test_system": "BaF3", "assay": "Induction of cell death in outer layer of cell spheres of mouse BaF3 cells harboring EGFR L858R/T790M/C797S mutant at 1 nM by Calcein AM/PI staining based analysis", "type": "functional"}, "BaF3 [33]": {"test_system": "BaF3", "assay": "Antitumor activity against mouse BaF3 cells allografted in nude mouse assessed as reduction of tumor volume at 50 mg/kg, po measured after 2 to 7 days", "type": "functional, organism-based", "details": "time 2-7 day"}, "[34]": {"assay": "Toxicity in nude mouse allografted with mouse BaF3 cells assessed as damage in spleen at 50 mg/kg, po for 7 days by H and E staining based analysis", "type": "organism-based", "details": "in vivo, 168 h, time 7 day"}, "NCI-H1975 [35]": {"test_system": "NCI-H1975", "assay": "Induction of apoptosis in human NCI-H1975 cells assessed as increase in green fluorescence at 10 to 25 nM by TUNNEL method", "type": "functional, cell-based", "details": "dose 10-25 nM"}, "BaF3 [36]": {"test_system": "BaF3", "assay": "Antiproliferative activity against mouse BaF3 cells harboring EGFR C797S/L858R/T790M mutant", "type": "functional, cell-based"}, "[37]": {"assay": "Toxicity in nude mouse xenografted with human NCI-H1975 cells assessed as body weight loss at 50 mg/kg, po measured for 7 days", "type": "organism-based", "details": "in vivo, 168 h, time 7 day"}, "[38]": {"assay": "Cytotoxicity against human HUVEC cells", "type": "toxicity, cell-based"}, "BaF3 [39]": {"test_system": "BaF3", "assay": "Inhibition of EGFR L858R/T790M/C797S mutant phosphorylation in mouse BaF3 cells assessed as reduction in red fluorescence incubated for 24 hrs by immunofluorescence analysis", "type": "cell-based"}, "[40]": {"assay": "Cytotoxicity against VEGF-stimulated human HUVEC cells", "type": "toxicity, cell-based"}, "NCI-H1975 [41]": {"test_system": "NCI-H1975", "assay": "Inhibition of cell migration in human NCI-H1975 cells by transwell assay", "type": "functional, cell-based"}}, "note": "Calls of active or inactive are those of the source. The calls are words filed in the database; no cut-off is given here.", "data": [{"smiles": "CN1CCCN(c2ccc(Nc3ncc(Br)c(Nc4ccccc4NS(=O)(=O)C4CC4)n3)cc2)CC1", "values": [{"measurement": "Activity", "setting": "BaF3 [1]", "result": "Active"}, {"measurement": "Activity", "setting": "BaF3 [2]", "result": "Active"}, {"measurement": "IC50", "setting": "[3]", "result": 5410, "unit": "nM"}, {"measurement": "inhibition at 0.01 µM", "setting": "NCI-H1975 [4]", "result": 92, "unit": "%"}, {"measurement": "Activity", "setting": "BaF3 [5]", "result": 69.42, "unit": "%"}, {"measurement": "inhibition", "setting": "BaF3 [6]", "result": "Active"}, {"measurement": "Activity", "setting": "NCI-H1975 [7]", "result": 6.42, "unit": "%"}, {"measurement": "viability at 0.01 µM", "setting": "BaF3 [8]", "result": 20.7, "unit": "%"}, {"measurement": "inhibition", "setting": "BaF3 [9]", "result": "Active"}, {"measurement": "inhibition", "setting": "[10]", "result": "Active"}, {"measurement": "inhibition in vivo at 50 mg/kg", "setting": "NCI-H1975 [11]", "result": 83.5, "unit": "%"}, {"measurement": "IC50", "setting": "[12]", "result": 4350, "unit": "nM"}, {"measurement": "inhibition", "setting": "NCI-H1975 [13]", "result": "Active"}, {"measurement": "inhibition", "setting": "NCI-H1975 [14]", "result": "Active"}, {"measurement": "IC50", "setting": "[15]", "result": 70.7, "unit": "nM"}, {"measurement": "inhibition", "setting": "NCI-H1975 [16]", "result": "Active"}, {"measurement": "Activity", "setting": "[17]", "result": "Non-Toxic"}, {"measurement": "Activity", "setting": "BaF3 [18]", "result": "Active"}, {"measurement": "Activity", "setting": "[19]", "result": "Non-Toxic"}, {"measurement": "Activity", "setting": "BaF3 [20]", "result": 0.48, "unit": "%"}, {"measurement": "Activity", "setting": "[21]", "result": "Active"}, {"measurement": "inhibition", "setting": "BaF3 [22]", "result": "Active"}, {"measurement": "inhibition", "setting": "BaF3 [23]", "result": "Dose-Dependent Effect"}, {"measurement": "Activity", "setting": "[24]", "result": "Non-Toxic"}, {"measurement": "IC50", "setting": "[25]", "result": 0.42, "unit": "nM"}, {"measurement": "IC50", "setting": "[26]", "result": 0.61, "unit": "nM"}, {"measurement": "Activity", "setting": "[27]", "result": "Non-Toxic"}, {"measurement": "Activity", "setting": "[28]", "result": "Non-Toxic"}, {"measurement": "IC50", "setting": "BaF3 [29]", "result": 3, "unit": "nM"}, {"measurement": "Activity", "setting": "[30]", "result": "Non-Toxic"}, {"measurement": "IC50", "setting": "NCI-H1975 [31]", "result": 33.8, "unit": "nM"}, {"measurement": "Activity", "setting": "BaF3 [32]", "result": "Active"}, {"measurement": "Activity", "setting": "BaF3 [33]", "result": "Active"}, {"measurement": "Activity", "setting": "[34]", "result": "Non-Toxic"}, {"measurement": "Activity", "setting": "NCI-H1975 [35]", "result": "Active"}, {"measurement": "IC50", "setting": "BaF3 [36]", "result": 4, "unit": "nM"}, {"measurement": "Activity", "setting": "[37]", "result": "Non-Toxic"}, {"measurement": "IC50", "setting": "[38]", "result": 2520, "unit": "nM"}, {"measurement": "inhibition", "setting": "BaF3 [39]", "result": "Active"}, {"measurement": "IC50", "setting": "[40]", "result": 799, "unit": "nM"}, {"measurement": "inhibition", "setting": "NCI-H1975 [41]", "result": "Active"}]}]}
